Reference: US20230203081A1, “LINCOSAMIDE ANTIBIOTICS AND USES THEREOF” (President and Fellows of Harvard College, priority 2020, published 2023)
Converted amounts (≈) assume the structure as drawn. Like-named read-outs stand apart in the source and are kept apart here.

Key:
Type in all cases: cell-based
E. coli ΔTolC = test: microbe, parasite or virus in culture; settings: Escherichia coli, E. coli HAV#038; ΔTolC
How it was run: (§1)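 Per CLSI, MICs by broth microdilution or agar dilution; strains other than streptococci and anaerobes were sub-cultured overnight at 35° C on blood agar, with a final broth inoculum of 5×10^5 CFU/mL.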

S. aureus MP-549 msrA = test: microbe, parasite or virus in culture
How it was run: as §1

B. fragilis ATCC 25285 = test: MIC (broth microdilution or agar dilution, CLSI)
How it was run: (§2)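 CLSI MIC, broth microdilution or agar dilution; compound 128-0.06 μg/mL, 2.5% DMSO final; triplicate. Anaerobes (e.g. clostridia) and streptococci run by specialized procedures. Other strains: overnight 35° C on blood agar, CaMHB, 0.5 McFarland, inoculum 5×10^5 CFU/mL.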

C. difficile ATCC 700057 = test: MIC (broth microdilution or agar dilution, CLSI)
How it was run: as §2

E. coli ATCC 25922 = test: MIC (broth microdilution or agar dilution, CLSI)
How it was run: as §1

E. coli LptD = test: MIC (broth microdilution or agar dilution, CLSI); settings: Escherichia coli, E. coli HAV#040; LptD; read-out: MIC
How it was run: as §1

E. faecalis ATCC 29212 = test: MIC (broth microdilution or agar dilution, CLSI)
How it was run: as §1

H. influenzae ATCC 49247 = test: MIC (broth microdilution or agar dilution, CLSI)
How it was run: as §1

K. pneumoniae ATCC 10031 = test: MIC (broth microdilution or agar dilution, CLSI)
How it was run: as §1

S. aureus ATCC 29213 = test: MIC (broth microdilution or agar dilution, CLSI)
How it was run: as §1

S. pneumoniae ATCC 49619 = test: MIC (broth microdilution or agar dilution, CLSI)
How it was run: as §1

S. pyogenes ATCC 19615 = test: MIC (broth microdilution or agar dilution, CLSI)
How it was run: as §1

S. aureus BAA 977 iErmA = test: microbe, parasite or virus in culture
How it was run: as §1

C. scindens ATCC 35704 = test: MIC (broth microdilution or agar dilution, CLSI); settings: C. scindens ATCC 35704
How it was run: as §2

[1] = system: E. coli MP-74 LptD mutant; test: MIC (broth microdilution or agar dilution, CLSI)
How it was run: as §2

E. coli MP-9 ΔTolC = test: MIC (broth microdilution or agar dilution, CLSI)
How it was run: as §1

[2] = system: E. faecalis MMX 847; cErmB; test: MIC (broth microdilution or agar dilution, CLSI); settings: E. faecalis MMX 847, cErmB
How it was run: as §1

S. aureus MMX 3035 cErmA = test: MIC (broth microdilution or agar dilution, CLSI); settings: S. aureus MMX 3035 cErmA
How it was run: as §1

[3] = system: S. pneumoniae MMX 3028 cErmB; test: MIC (broth microdilution or agar dilution, CLSI); settings: S. pneumoniae MMX 3028 cErmB
How it was run: as §1

[4] = system: S. pneumoniae MMX 3031 cMefA; test: MIC (broth microdilution or agar dilution, CLSI); settings: S. pneumoniae MMX 3031 cMefA
How it was run: as §1

[5] = system: S. pyogenes MMX 946; cErmB; test: MIC (broth microdilution or agar dilution, CLSI); settings: S. pyogenes MMX 946, cErmB
How it was run: as §1

[6] = Staphylococcus aureus, MP549MSRA, S. aureus MP-549 msrA
[7] = Escherichia coli, ATCC25922, E. coli ATCC 25922, read-out: MIC
[8] = Enterococcus faecalis, ATCC29212, E. faecalis ATCC 29212, read-out: MIC
[9] = Enterococcus faecalis, read-out: MIC
[10] = Haemophilus influenzae, ATCC49247, H. influenzae ATCC 49247, read-out: MIC
[11] = Staphylococcus aureus, ATCC29213, S. aureus ATCC 29213, read-out: MIC
[12] = Staphylococcus aureus, MMX3035CERMA, read-out: MIC
[13] = Streptococcus pneumoniae, ATCC49619, S. pneumoniae ATCC 49619, read-out: MIC
[14] = Streptococcus pneumoniae, MMX3028CERMB, read-out: MIC
[15] = Streptococcus pneumoniae, MMX3031CMEFA, read-out: MIC
[16] = Streptococcus pyogenes, ATCC19615, S. pyogenes ATCC 19615, read-out: MIC
[17] = Streptococcus pyogenes, read-out: MIC

SMILES	MIC (S. aureus MP-549 msrA; S. aureus MP-549 msrA)	MIC ([1]; E. coli MP-74 LptD mutant)	MIC (E. coli ATCC 25922; E. coli ATCC 25922)	MIC (E. coli MP-9 ΔTolC; E. coli MP-9 ΔTolC)	MIC (E. faecalis ATCC 29212; E. faecalis ATCC 29212)	MIC (H. influenzae ATCC 49247; H. influenzae ATCC 49247)	MIC (K. pneumoniae ATCC 10031; K. pneumoniae ATCC 10031)	MIC (S. aureus ATCC 29213; S. aureus ATCC 29213)	MIC (S. pyogenes ATCC 19615; S. pyogenes ATCC 19615)	MIC (S. aureus BAA 977 iErmA; Staphylococcus aureus, BAA977)	MIC (S. aureus MP-549 msrA; [6])	MIC ([1]; Escherichia coli)	MIC (E. coli ATCC 25922; [7])	MIC (E. coli MP-9 ΔTolC; Escherichia coli)	MIC (E. faecalis ATCC 29212; [8])	MIC [2, 9]	MIC (H. influenzae ATCC 49247; [10])	MIC (S. aureus ATCC 29213; [11])	MIC (S. aureus MMX 3035 cErmA; [12])	MIC (S. pneumoniae ATCC 49619; [13])	also measured
CCN1CCN(c2cc3c(cc2F)c(=O)c(C(=O)O)cn3C2CC2)CC1 [Enrofloxacin]	–	–	–	–	–	–	–	–	–	–	–	–	–	–	–	–	–	–	–	–	MIC (E. coli ΔTolC): ≤ 0.06 µg/mL; MIC (S. aureus MP-549 msrA; Staphylococcus aureus, MP549MSRA, S. aureus HAV#032, MP-549, MSR(A), read-out: MIC): 0.5 µg/mL (≈ 1.39 µM); MIC (B. fragilis ATCC 25285; Bacteroides fragilis, ATCC25285, B. fragilis HAV#013, ATCC 25285, read-out: MIC): 2 µg/mL (≈ 5.56 µM); MIC (C. difficile ATCC 700057; Clostridioides difficile, ATCC700057, C. difficile HAV#011, ATCC 700057, read-out: MIC): 32 µg/mL (≈ 89 µM); MIC (E. coli ATCC 25922; Escherichia coli, ATCC25922, E. coli HAV#006, ATCC 25922, read-out: MIC): ≤ 0.06 µg/mL; MIC (E. coli LptD): ≤ 0.06 µg/mL; MIC (E. faecalis ATCC 29212; Enterococcus faecalis, ATCC29212, E. faecalis HAV#005, ATCC 29212, read-out: MIC): 0.5 µg/mL (≈ 1.39 µM); MIC (H. influenzae ATCC 49247; Haemophilus influenzae, ATCC49247, H. influenzae HAV#007, ATCC 49247, read-out: MIC): ≤ 0.06 µg/mL; MIC (K. pneumoniae ATCC 10031; Klebsiella pneumoniae, ATCC10031, K. pneumoniae HAV#008, ATCC 10031, read-out: MIC): ≤ 0.06 µg/mL; MIC (S. aureus ATCC 29213; Staphylococcus aureus, ATCC29213, S. aureus HAV#001, ATCC 29213, MP-549, read-out: MIC): 0.125 µg/mL (≈ 0.348 µM); MIC (S. pneumoniae ATCC 49619; Streptococcus pneumoniae, ATCC49619, S. pneumoniae HAV#003, ATCC 49619, read-out: MIC): 0.25 µg/mL (≈ 0.696 µM); MIC (S. pyogenes ATCC 19615; Streptococcus pyogenes, ATCC19615, S. pyogenes HAV#004, ATCC 19615, read-out: MIC): 0.25 µg/mL (≈ 0.696 µM)
CSC1O[C@H]([C@H](NC(=O)[C@H]2NC[C@@H]3C[C@@H](C(C)C)CCO[C@H]32)[C@H](C)Cl)C(O)[C@@H](O)[C@H]1O (stereo partly shown) [FSA-512078a]	0.06 µg/mL (≈ 0.125 µM)	4 µg/mL (≈ 8.32 µM)	32 µg/mL (≈ 66.5 µM)	2 µg/mL (≈ 4.16 µM)	0.25 µg/mL (≈ 0.52 µM)	8 µg/mL (≈ 16.6 µM)	1 µg/mL (≈ 2.08 µM)	0.06 µg/mL (≈ 0.125 µM)	0.02 µg/mL (≈ 0.0416 µM)	–	–	–	–	–	–	–	–	–	–	–	MIC (S. aureus BAA 977 iErmA; S. aureus BAA 977 iErmA): 0.06 µg/mL (≈ 0.125 µM); MIC (B. fragilis ATCC 25285; B. fragilis ATCC 25285): 1 µg/mL (≈ 2.08 µM); MIC (C. difficile ATCC 700057; C. difficile ATCC 700057): 1 µg/mL (≈ 2.08 µM); MIC (C. scindens ATCC 35704): 0.25 µg/mL (≈ 0.52 µM); MIC [2]: 32 µg/mL (≈ 66.5 µM); MIC (S. aureus MMX 3035 cErmA): 32 µg/mL (≈ 66.5 µM); MIC (S. pneumoniae ATCC 49619; S. pneumoniae ATCC 49619): 0.03 µg/mL (≈ 0.0624 µM); MIC [3]: 8 µg/mL (≈ 16.6 µM); MIC [4]: 0.03 µg/mL (≈ 0.0624 µM); MIC [5]: 8 µg/mL (≈ 16.6 µM)
CSC1O[C@H]([C@H](NC(=O)[C@H]2NC[C@@H]3C[C@H](C(C)C)CCO[C@H]32)[C@H](C)Cl)C(O)[C@@H](O)[C@H]1O (stereo partly shown) [FSA-512078b]	0.25 µg/mL (≈ 0.52 µM)	16 µg/mL (≈ 33.3 µM)	128 µg/mL (≈ 266 µM)	4 µg/mL (≈ 8.32 µM)	0.5 µg/mL (≈ 1.04 µM)	32 µg/mL (≈ 66.5 µM)	4 µg/mL (≈ 8.32 µM)	0.5 µg/mL (≈ 1.04 µM)	≤0.12 µg/mL	–	–	–	–	–	–	–	–	–	–	–	–
CSC1O[C@H]([C@H](NC(=O)[C@@H]2[C@@H]3OCC[C@H](CC(C)C)C[C@H]3CN2C)[C@H](C)Cl)CC(O)[C@H]1O (stereo partly shown) [FSA-513003a]	–	–	–	–	–	–	–	–	–	0.12 µg/mL (≈ 0.243 µM)	0.12 µg/mL (≈ 0.243 µM)	2 µg/mL (≈ 4.06 µM)	32 µg/mL (≈ 64.9 µM)	1 µg/mL (≈ 2.03 µM)	0.12 µg/mL (≈ 0.243 µM)	8 µg/mL (≈ 16.2 µM)	2 µg/mL (≈ 4.06 µM)	0.12 µg/mL (≈ 0.243 µM)	16 µg/mL (≈ 32.4 µM)	0.06 µg/mL (≈ 0.122 µM)	MIC [3, 14]: 8 µg/mL (≈ 16.2 µM); MIC [4, 15]: ≤ 0.06 µg/mL; MIC (S. pyogenes ATCC 19615; [16]): 0.06 µg/mL (≈ 0.122 µM); MIC [5, 17]: 8 µg/mL (≈ 16.2 µM)
CSC1O[C@H]([C@H](NC(=O)[C@H]2NC[C@@H]3C[C@@H](CC(C)C)CCO[C@H]32)[C@H](C)Cl)CC(O)[C@H]1O (stereo partly shown) [FSA-513018a]	–	–	–	–	–	–	–	–	–	≤ 0.06 µg/mL	≤ 0.06 µg/mL	2 µg/mL (≈ 4.17 µM)	16 µg/mL (≈ 33.4 µM)	0.5 µg/mL (≈ 1.04 µM)	≤ 0.06 µg/mL	2 µg/mL (≈ 4.17 µM)	2 µg/mL (≈ 4.17 µM)	≤ 0.06 µg/mL	8 µg/mL (≈ 16.7 µM)	≤ 0.06 µg/mL	MIC [3, 14]: 0.5 µg/mL (≈ 1.04 µM); MIC [4, 15]: ≤ 0.06 µg/mL; MIC (S. pyogenes ATCC 19615; [16]): ≤ 0.06 µg/mL; MIC [5, 17]: 0.5 µg/mL (≈ 1.04 µM)
